The test system of the first assay is CWR22RV1 cells. Nature of the assay: Inhibition of proliferation of CWR22RV1 cells (CCK-8). Format: cell-based, human. The following applies: 6 days culture, read-out: IC50 against CWR22RV1 cells. The procedure:
1) CWR22RV1 cells were subcultured in cell culture medium, and the cells in good growth condition were seeded in a 96-well plate, 80 μL for each well, and the cell number in each well was 1500. The plate was incubated overnight in a 37° C., 5% CO2 cell incubator. 2) The drug was prepared as 30 mM stock solution with dimethyl sulfoxide (DMSO). Prior to use, the stock solution was diluted 3 times with DMSO, and then further diluted as 3-fold gradient to obtain 9 concentration gradients. Then, each concentration of compound was diluted 200 times with the culture solution (ensuring that the DMSO concentration in the culture system was 0.1%), and two replicate wells were set for each concentration. 20 μL of diluted compound solution was added to the cell culture well (with final concentrations of 10 μM, 3.3 μM. 1.1 μM . . . ), and the plate was gently shaken to mix. In addition, 3 negative control wells containing only cells and 3 blank control wells containing only culture medium were included (6 wells were each added 20 μL DMSO diluted 200 times with culture medium). 2. Result detection: (1) After culturing for 6 days, 10 μL CCK-8 was added to each well, and the plate was continually cultured in a 37° C., 5% CO2 cell incubator for 2.5 h. (2) The absorbance (OD value) was detected at 450 nm using a multifunctional microplate reader. (3) The data were analyzed by Dose-response-inhibition equation in the software GraphPad Prism6, and the IC50 value was obtained.
For “1-(2′,4′-dioxo-3′-(2-oxo-2-((S)-2-phenylpyrrolidin-1-yl)ethyl)-2,3-dihydrospiro[cyclopropane-indene-1,5′-oxazolidine]-5-yl)-3-methylurea [Example 325]”, the IC50 was over 2000 nM.

As for `CNC(=O)Nc1ccc2c(c1)CC[C@@]21OC(=O)N(CC(=O)N2C(c3ccc(F)c(Cl)c3)CC[C@@H]2C)C1=O` (stereo in doubt) [Example 369, 1-((R)-3′-(2-((2R,5S)-2-(3-chloro-4-fluorophenyl)-5-methylpyrrolidin-1-yl)-2-oxoethyl)-2′,4′-dioxo-2,3-dihydrospiro[indene-1,5′-oxazolidine]-5-yl)-3-methylurea], the IC50 is over 2000 nM.

Turning to `CNC(=O)Nc1ccc2c(c1)CC[C@@]21OC(=O)N(CC(=O)N2C[C@@H]3C[C@H]2CN3C(=O)OC(C)(C)C)C1=O` [Example 10, (1S,4S)-5-(2-((R)-5-(3-methylureido)-2′,4′-dioxo-2,3-dihydrospiro[indene-1,5′-oxazolidine]t-butyl-3′-yl)acetyl)-2,5-diazabicyclo[2.2.1]heptane-2-carboxylic Acid t-Butyl Ester], the IC50 is over 2000 nM.

In the case of `CNC(=O)Nc1ccc2c(c1)CC[C@@]21OC(=O)N(CC(=O)N2CCCC2c2ccccc2C)C1=O` (stereo partly drawn) [Example 11, 1-((1R)-2′,4′-dioxo-3′-(2-oxo-2-(2-(o-tolyl)pyrrolidin-1-yl)ethyl)-2,3-dihydrospiro[indene-1,5′-oxazolidine]-5-yl)-3-methylurea], the IC50 lay in the range of 500 to 2000 nM.

For the compound `CNC(=O)Nc1ccc2c(c1)CC[C@@]21OC(=O)N(CC(=O)N2C(c3ccc(F)cc3)CCC2(C)C)C1=O` (stereo partly drawn) [Example 39, 1-((R)-3′-(2-(5-(4-fluorophenyl)-2,2-dimethylpyrrolidin-1-yl)-2-oxoethyl)-2′,4′-dioxo-2,3-dihydrospiro[indene-1,5′-oxazolidine]-5-yl)-3-methylurea], the IC50 was 500 to 2000 nM.

The same assay, now with this note: Homo sapiens, CWR22Rv1, 144 h, 6 days culture, read-out: IC50 against CWR22RV1 cells.
On to `CNC(=O)Nc1ccc2c(c1)CC[C@@]21OC(=O)N(CC(=O)N2C(c3ccc(F)cc3)CC[C@@H]2CO)C1=O` (mixture of isomers) [Example 360, 1-((R)-3′-(2-((R)-2-(4-fluorophenyl)-5-(hydroxymethyl)pyrrolidin-1-yl)-2-oxoethyl)-2′,4′-dioxo-2,3-dihydrospiro[indene-1,5′-oxazolidine]-5-yl)-3-methylurea], for which the IC50 is over 2000 nM.

Consider `CNC(=O)Nc1ccc2c(c1)CC[C@@]21OC(=O)N(CC(=O)N2CCCC2c2ccccc2OC)C1=O` (single isomer, unassigned) [Example 338], for which the IC50 is over 2000 nM.

For `CNC(=O)Nc1ccc2c(c1)CC[C@]21OC(=O)N(CC(=O)N2CCCC[C@@H]2c2ccccc2)C1=O` [Example 1], the IC50 was over 2000 nM.

As to `CNC(=O)Nc1ccc2c(c1)CC[C@@]21OC(=O)N(CC(=O)N2CCCC[C@@H]2c2ccccc2)C1=O` [Example 2], the IC50 is over 2000 nM.

For the compound `CNC(=O)Nc1ccc2c(c1)CC[C@@]21OC(=O)N(CC(=O)N2C3CCCC2CC3)C1=O` [Example 3], the IC50 is over 2000 nM.

Take `CNC(=O)Nc1ccc2c(c1)CC[C@]21OC(=O)N(CC(=O)N2CCCC[C@H]2c2ccccc2)C1=O` [Example 4]: the IC50 is over 2000 nM.

`CNC(=O)Nc1ccc2c(c1)CC[C@@]21OC(=O)N(CC(=O)N2CCCC[C@H]2c2ccccc2)C1=O` [Example 5, 1-((R)-2′,4′-dioxo-3′-(2-oxo-2-((S)-2-phenylpiperidin-1-yl)ethyl)-2,3-dihydrospiro[indene-1,5-oxazolidine]-5-yl)-3-methylurea]: the IC50 was over 2000 nM.

As for `CNC(=O)Nc1ccc2c(c1)CC[C@@]21OC(=O)N(CC(=O)N2C3CCC2CC3)C1=O` [Example 7, 1-((R)-3′-(2-((1S,4S)-7-azabicyclo[2.2.1]heptan-7-yl)-2-oxoethyl)-2′,4′-dioxo-2,3-dihydrospiro[indene-1,5′-oxazolidine]-5-yl)-3-methylurea], the IC50 was over 2000 nM.

As to `CNC(=O)Nc1ccc2c(c1)CC[C@@]21OC(=O)N(CC(=O)N2CCC[C@H]2c2ccc(F)cc2C)C1=O` [Example 8, 1-((R)-3′-(2-((S)-2-(4-fluoro-2-methylphenyl)pyrrolidin-1-yl)-2-oxoethyl)-2′,4′-dioxo-2,3-dihydrospiro[indene-1,5′-oxazolidine]-5-yl)-3-methylurea], the IC50 lay in the range of 500 to 2000 nM.

As to `CNC(=O)Nc1ccc2c(c1)CC[C@@]21OC(=O)N(CC(=O)N2CCCC3CCCCC32)C1=O` (stereo partly drawn) [Example 12, 1-methyl-3-((1R)-3′-(2-(octahydroquinolin-1-(2H)-yl)-2-oxoethyl)-2′,4′-dioxo-2,3-dihydrospiro[indene-1,5′-oxazolidine]-5-yl)urea], the IC50 was over 2000 nM.

For `CNC(=O)Nc1ccc2c(c1)CC[C@@]21OC(=O)N(CC(=O)N2CCCC2c2ccccc2OC(F)(F)F)C1=O` (stereo partly drawn) [Example 13, 1-((1R)-2′,4′-dioxo-3′-(2-oxo-2-(2-(2-(trifluoromethoxyl)phenyl)pyrrolidin-1-yl)ethyl)-2,3-dihydrospiro[indene-1,5′-oxazolidine]-5-yl)-3-methylurea], the IC50 is over 2000 nM.

On to `CNC(=O)Nc1ccc2c(c1)CC[C@@]21OC(=O)N(CC(=O)N2C(c3ccc(F)cc3)CC[C@@H]2C)C1=O` (stereo partly drawn) [Example 15, 1-((R)-3′-(2-((5S)-2-(4-fluorophenyl)-5-methylpyrrolidin-1-yl)-2-oxoethyl)-2′,4′-dioxo2,3-dihydrospiro[indene-1,5′-oxazolidine]-5-yl)-3-methylurea], for which the IC50 was at most 500 nM.

For the compound `CNC(=O)Nc1ccc2c(c1)CCC21OC(=O)N(CC(=O)N2CC3CCC2C3)C1=O` (stereo not drawn) [Example 16, 1-(3′-(2-(2-azabicyclo[2.2.1]heptan-2-yl)-2-oxoethyl)-2′,4′-dioxo-2,3-dihydrospiro[indene-1,5′-oxazolidine]-5-yl)-3-methylurea], the IC50 is over 2000 nM.

On to `CNC(=O)Nc1ccc2c(c1)CC[C@@]21OC(=O)N(CC(=O)N2C(c3ccc(F)cc3)CC[C@H]2C)C1=O` (stereo partly drawn) [Example 18, 1-((R)-3′-(2-((5R)-2-(4-fluorophenyl)-5-methylpyrrolidin-1-yl)-2-oxoethyl)-2′,4′-dioxo-2,3-dihydrospiro[indene-1,5′-oxazolidine]-5-yl)-3-methylurea], for which the IC50 was at most 500 nM.

`CNC(=O)Nc1ccc2c(c1)C1(CC1)CC21OC(=O)N(CC(=O)N2C(C)CCC2c2ccc(F)cc2)C1=O` (stereo not drawn) [Example 97, 1-(3′-(2-(2-(4-fluorophenyl)-5-methylpyrrolidin-1-yl)-2-oxoethyl)-2′,4′-dioxo-2,3-dihydrospiro[cyclopropane-1,1′-indene-1,5′-oxazolidine]-5-yl)-3-methylurea]: the IC50 is over 2000 nM.

Take `CNC(=O)Nc1ccc2c(c1)CC[C@@]21OC(=O)N(CC(=O)N[C@]23C[C@H]4C[C@H](C[C@H](C4)C2)C3)C1=O` [Example 99]: the IC50 was over 2000 nM.

Turning to `CNC(=O)Nc1ccc2c(c1)CC[C@@]21OC(=O)N(CC(=O)N2CCc3ccccc3C2)C1=O` [Example 100, (R)-1-(3′-(2-(3,4-dihydroisoquinolin-2(1H)-yl)-2-oxoethyl)-2′,4′-dioxo-2,3-dihydrospiro[indene 1,5′-oxazolidine]-5-yl)-3-methylurea], the IC50 is over 2000 nM.

As to `CNC(=O)Nc1ccc2c(c1)CC[C@@]21OC(=O)N(CC(=O)N2C[C@@H]3C[C@@H]2CO3)C1=O` [Example 103], the IC50 was over 2000 nM.

For the compound `CNC(=O)Nc1ccc2c(c1)CC[C@@]21OC(=O)N(CC(=O)NC2C(C)(C)C(O)C2(C)C)C1=O` (stereo partly drawn) [Example 105, (R)—N-(3-hydroxyl-2,2,4,4-tetramethylcyclobutyl)-2-(5-(3-Methylureido)-2′,4′-dioxo-2,3-dihydrospiro[indene-1,5′-oxazole]-3′-yl)acetamide], the IC50 was over 2000 nM.

With `CNC(=O)Nc1ccc2c(c1)CC[C@@]21OC(=O)N(CC(=O)N2CCC2c2ccccc2)C1=O` (stereo partly drawn) [Example 106], the IC50 was over 2000 nM.

Turning to `CNC(=O)Nc1ccc2c(c1)CC[C@@]21OC(=O)N(CC(=O)N2CCOC[C@@H]2c2ccccc2)C1=O` [Example 107], the IC50 is over 2000 nM.

Regarding `CNC(=O)Nc1ccc2c(c1)CC[C@@]21OC(=O)N(CC(=O)N2C(C(C)(C)C)OC[C@@H]2c2ccccc2)C1=O` (stereo partly drawn) [Example 108], the IC50 is over 2000 nM.

In the case of `CNC(=O)Nc1ccc2c(c1)CC[C@@]21OC(=O)N(CC(=O)N2CCCc3cc(-c4ccn(C)n4)c(C(F)(F)F)cc32)C1=O` [Example 109, (R)-1-methyl-3-(3′-(2-(6-(1-methyl-1H-pyrazol-3-yl)-7-(trifluoromethyl)-3,4-dihydroquinolin-1-(2H)-yl)-2-oxoethyl)-2′,4′-dioxo-2,3-dihydrospiro[indene-1,5′-oxazolidine]-5-yl)urea], the IC50 is over 2000 nM.

For `CNC(=O)Nc1ccc2c(c1)CC[C@@]21OC(=O)N(Cc2ncc(-c3ccccc3)[nH]2)C1=O` [Example 110, (R)-1-(2′,4′-dioxo-3′-((5-phenyl-1H-imidazol-2-yl)methyl)-2,3-dihydrospiro[indene-1,5′-oxazolidine]-5-yl)-3-methylurea], the IC50 is over 2000 nM.

Regarding `CNC(=O)Nc1ccc2c(c1)CC[C@@]21OC(=O)N(CC(=O)N2CCCC2c2nccn2C)C1=O` (stereo partly drawn) [Example 111], the IC50 is over 2000 nM.

With `CNC(=O)Nc1ccc2c(c1)CC[C@@]21OC(=O)N(CC(=O)N2CCCC2c2cccc3c2OCO3)C1=O` (stereo partly drawn) [Example 112], the IC50 was over 2000 nM.

Still in this assay, the particulars now being: Homo sapiens, CWR22Rv1, 144 h, 6 days culture, read-out: IC50 against CWR22RV1 cells (text).
For `CNC(=O)Nc1ccc2c(c1)CC[C@@]21OC(=O)N(CC(=O)N2C(c3ccc(F)cc3)CC[C@@H]2C)C1=O` (stereo partly drawn) [Example 15, 1-((R)-3′-(2-((5S)-2-(4-fluorophenyl)-5-methylpyrrolidin-1-yl)-2-oxoethyl)-2′,4′-dioxo2,3-dihydrospiro[indene-1,5′-oxazolidine]-5-yl)-3-methylurea], the IC50 is at most 500 nM.

Consider `CNC(=O)Nc1ccc2c(c1)CC[C@@]21OC(=O)N(CC(=O)N2C(c3ccc(F)cc3)CC[C@H]2C)C1=O` (stereo partly drawn) [Example 18, 1-((R)-3′-(2-((5R)-2-(4-fluorophenyl)-5-methylpyrrolidin-1-yl)-2-oxoethyl)-2′,4′-dioxo-2,3-dihydrospiro[indene-1,5′-oxazolidine]-5-yl)-3-methylurea], for which the IC50 is at most 500 nM.
